Results taken from the supplement of paper PMC11061612.

Assays:
Experiment in all cases: combination Emax (second highest fraction inhibited in the dose matrix, 72 h); higher = more inhibition; extreme values may be limits of the assay
[1] = system: BHT-101 (Thyroid Gland Carcinoma)
In short: (§1)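 Cell lines in DMEM/F12 or RPMI with 10% FBS were plated in 1536-well plates, held 24 hours at 37°C, 5% CO2, then given two-drug dose matrices for 72 hours (DMSO typically 0.2%). Viability was read by CellTiter-Glo 2.0 luminescence and scaled as inhibition from 0 (vehicle wells) to 1 (blank wells). Combination Emax is the second-highest inhibition in the matrix; Bliss excess is observed combination effect minus expected EA + EB − EA·EB, EA and EB being single-agent effects.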

[2] = system: COR-L88 (Small Cell Lung Carcinoma)
In short: as §1

[3] = system: ES6 (Ewing's Sarcoma)
In short: as §1

[4] = system: IST-MEL1 (Melanoma)
In short: as §1

[5] = system: KALS-1 (Glioblastoma)
In short: as §1

[6] = system: MOLP-8 (Plasma Cell Myeloma)
In short: as §1

[7] = system: MOLT-13 (T-Lymphoblastic Leukemia)
In short: as §1

[8] = system: MONO-MAC-6 (Acute Myeloid Leukemia)
In short: as §1

[9] = system: NAMALWA (Burkitt's Lymphoma)
In short: as §1

[10] = system: NCI-H1963 (Small Cell Lung Carcinoma)
In short: as §1

[11] = system: NCI-H2373 (Mesothelioma)
In short: as §1

[12] = system: P30-OHK (B-Lymphoblastic Leukemia)
In short: as §1

[13] = system: P32-ISH (Burkitt's Lymphoma)
In short: as §1

[14] = system: RCC-JW (Kidney Carcinoma)
In short: as §1

[15] = system: SK-CO-1 (Colorectal Carcinoma)
In short: as §1

[16] = system: SNU-407 (Colorectal Carcinoma)
In short: as §1

[17] = system: TUR (Acute Myeloid Leukemia)
In short: as §1

[18] = system: WM35 (Melanoma)
In short: as §1

[19] = system: ZR-75-30 (Breast Carcinoma)
In short: as §1

Structure (SMILES)	combination Emax [1]	combination Emax [2]	combination Emax [3]	combination Emax [4]	combination Emax [5]	combination Emax [6]	combination Emax [7]	combination Emax [8]	combination Emax [9]	combination Emax [10]	combination Emax [11]	combination Emax [12]	combination Emax [13]	combination Emax [14]	combination Emax [15]	combination Emax [16]	combination Emax [17]	combination Emax [18]	combination Emax [19]
COc1nnc2ccc(N3CCC(c4ccc(OCCN5CCN(C)C(=O)[C@H]5C)cc4)CC3)nn12 [AZD5153] + CC1(C)CCC(CN2CCN(c3ccc(C(=O)NS(=O)(=O)c4ccc(NCC5CCOCC5)c([N+](=O)[O-])c4)c(Oc4cnc5[nH]ccc5c4)c3)CC2)=C(c2ccc(Cl)cc2)C1 [Venetoclax] (first compound max 1 µM, 7x7, partner max 1 µM)	0.718	0.348	0.292	0.14	0.616	0.945	0.987	0.989	0.761	0.988	0.39	1	0.701	0.3	0.321	0.902	0.458	0.556	0.235
Cc1c2c(nn1C)CSCc1cc(n(C)n1)CSc1cc(c3ccccc3c1)OCCCc1c(C(=O)O)n(C)c3c-2c(Cl)ccc13 [AZD5991] + CN(C)CCCOc1ccc(-c2ccc3ncc4c(c3c2)n(C2CCOCC2)c(=O)n4C)cn1 [AZD0156] (first compound max 1 µM, 7x7, partner max 1 µM)	0.659	0.3	0.279	0.196	0.273	1	1	1	0.996	0.354	0.272	0.71	1	0.289	0.363	0.676	0.477	0.231	0.286
Cn1cnc2c(F)c(Nc3ccc(Br)cc3Cl)c(C(=O)NOCCO)cc21 [Selumetinib] + C=CCn1c(=O)c2cnc(Nc3ccc(N4CCN(C)CC4)cc3)nc2n1-c1cccc(C(C)(C)O)n1 [AZD1775] (first compound max 10 µM, partner max 1 µM)	0.828	0.666	0.233	0.527	0.755	0.791	1	0.743	0.966	0.913	0.342	0.675	0.999	0.16	0.794	0.722	0.764	0.686	0.134
CC(=O)c1c(C)c2cnc(Nc3ccc(N4CCNCC4)cn3)nc2n(C2CCCC2)c1=O [Palbociclib] + CN(CC[C@H](CSC1=CC=CC=C1)NC2=C(C=C(C=C2)S(=O)(=O)NC(=O)C3=CC=C(C=C3)N4CCC(CC4)[C@H](C5=CC=CC=C5C6=CC=C(C=C6)Cl)O)S(=O)(=O)C(F)(F)F)CCO [AZD4320] (first compound max 10 µM, 7x7, partner max 1 µM)	0.598					0.542	0.975			1	0.223	0.967	0.735			0.483	0.381	0.229	
C=CCn1c(=O)c2cnc(Nc3ccc(N4CCN(C)CC4)cc3)nc2n1-c1cccc(C(C)(C)O)n1 [AZD1775] + C1CN(CCC1(C(=O)N[C@@H](CCO)C2=CC=C(C=C2)Cl)N)C3=NC=NC4=C3C=CN4 [Capivasertib] (first compound max 3 µM, partner max 3 µM)	0.631	0.703	0.472	0.65	0.766	0.91	0.973	0.95	0.981		0.54	0.947	1	0.619	0.691	0.675	0.955	0.681	0.441
COc1nnc2ccc(N3CCC(c4ccc(OCCN5CCN(C)C(=O)[C@H]5C)cc4)CC3)nn12 [AZD5153] + CN(CC[C@H](CSC1=CC=CC=C1)NC2=C(C=C(C=C2)S(=O)(=O)NC(=O)C3=CC=C(C=C3)N4CCC(CC4)[C@H](C5=CC=CC=C5C6=CC=C(C=C6)Cl)O)S(=O)(=O)C(F)(F)F)CCO [AZD4320] (first compound max 1 µM, 7x7, partner max 1 µM)	0.737					0.98	1			1	0.511	1	0.68			0.902	0.626	0.718	
CN(C)CCCOc1ccc(-c2ccc3ncc4c(c3c2)n(C2CCOCC2)c(=O)n4C)cn1 [AZD0156] + O=C(c1cc(Cc2n[nH]c(=O)c3ccccc23)ccc1F)N1CCN(C(=O)C2CC2)CC1 [Olaparib] (first compound max 3 µM, partner max 3 µM)	0.362	0.16	0.315	0.228	0.135	0.67	0.397	0.461	0.487		0.359	0.668	0.628	0.468	0.608	0.296	0.273	0.201	0.283
